Counter-ions that a name gives are not always drawn. Like-named read-outs stand apart in the source and are kept apart here.
What was measured:
[1] = tested on: adjuvant induced arthritis; test: developing adjuvant arthritis (AA) assay; assay type: in vivo; conditions: arthritic rats; printed * = p<0.01, ** = p<0.05
Procedure: Antirheumatic and anti-inflammatory activities of the compounds of the invention were determined using the developing adjuvant arthritis assay in rats and the plasma fibronectin assay in arthritic rats. The developing adjuvant arthritis assay was used in conjunction with the plasma fibronectin assay as a primary screening method in the evaluation of compounds for potential use as disease modifying anti-rheumatic drugs. The procedure used to induce arthritis in rats is a modification of the methods published by Pearson, J. Chron. Dis. 16, 863-874 (1973) and by Glenn et al., Amer. J. Vet. Res. 1180-1193 (1965). Adjuvant induced arthritis bears many of the traits of rheumatoid arthritis. It is a chronic, progressive, deforming arthritis of the peripheral joints, with a primary mononuclear cell response consisting of bone and joint space invasion by pannus. In order to detect disease modifying anti-rheumatic drug activity, drug treatment is started before the disease has become irrevocably established. Since such drugs are not designed to be administered prophylactically, drug treatment of adjuvant arthritis is initiated at a time when the disease is developing but is not yet irreversible. Animals develop significant systemic arthritic disease which can be measured by swelling of the non-injected rear paw (NIP) 15 to 20 days following an initial injection on day 1 of complete Freund's adjuvant into the right hindfoot paw.
(§1) Data in the developing adjuvant arthritis (AA) and plasma fibronectin (FN) assays are expressed as percent inhibition, i.e. inhibition of non-injected paw inflammation (NIP) and injected paw (RPV) and lowering of plasma fibronectin, the asterisks * and ** indicating statistical significance at the p<0.01 and p<0.05 levels, respectively. Compounds are considered active at p<0.05 level. Non-statistically significant results are recorded as "------ ". In the acetylcholine-induced abdominal constriction test, the test compounds were administered either as suspensions in gum tragacanth (GT) or as aqueous solutions prepared by addition of just sufficient dilute aqueous methanesulfonic acid (MS) or dilute aqueous lactic acid (LA) to dissolve the compound. The compounds are identified by the example number above where their preparations are described. All data in the anti-bradykinin, rat writhing and Randall-Selitto tests were obtained on oral administration.

[2] = tested on: acetylcholine-induced abdominal constriction; test: acetylcholine-induced abdominal constriction test (ACH); assay type: in vivo; set-up: key to ACH remark (Depr. = depressant): The abbreviations IA and Depr. represent, respectively, inactive and depressant; The abbreviations IA and Depr. represent, respectively, inactive and depressant; conditions: mice; for ED50 / inhibition in vivo at 100 mg/kg: Mus musculus; for inhibition in vivo at 100 mg/kg: dose level 100, read-out: ACH percent inhibition at dose 100; for ACH remark (Depr. = depressant): remark beside the ED50
Description: J. Pharmacol. Chemotherap. 32, 295 (1968); a modification of the anti-bradykinin test, which is also a primary analgesic screening procedure, described by Berkowitz et al., J. Pharmacol. Exptl. Therap. 177, 500-508 (1971), Blane et al., J. Pharm. Pharmacol. 19, 367-373 (1967), Botha et al., Eur. J. Pharmacol. 6, 312-321 (1969) and Deffenu et al., J. Pharm. Pharmacol. 18, 135 (1966); and the Randall-Selitto analgesic test described by Randall and Selitto, Arch. Int. Pharmacodyn., 111, 409-419 (1957).
as §1, with “Compounds are considered active at p<0.05 level.” left out

[3] = tested on: acetic acid-induced writhing; test: acetic acid-induced writhing assay in the rat (RW); assay type: in vivo; conditions: for ED50: Rattus norvegicus, po; for ED50 / RW ED50: oral administration
Procedure: as §1

[4] = tested on: mouse vasa deferentia preparation; test: mouse vas deferens test (MVD); assay type: cell-based; conditions: inhibition of contractions, in vitro, active at 5.0 μM or less
Description: It has been shown previously that smoking marijuana reduces intraocular pressure in man [Helper and Frank, Marijuana Smoking and Intraocular Pressure., J. Am. Med. Assoc. 217, 1392 (1971)]. Topical application or systemic injection of delta-9 tetrahydrocannabinol, a principal active ingredient in marijuana, also reduces intraocular pressure [Purnell and Gregg, delta-9 Tetrahydrocannabinol, Euphoria and Intraocular Pressure in Man., Ann. Opth. 7, 921-923 (1975); Green and Pederson, Effect of delta-9 Tetrahydrocannabinol on Aqueous Dynamics and Ciliary Body Permeability in the Rabbit Eye., Exptl. Eye Research 15, 499-507 (1973); Colasanti, Craig and Allara, Intraocular Pressure, Ocular Toxicity and Neurotoxicity after Administration of Cannabinol or Cannibigerol, Exptl. Eye Research 39, 252-259 (1984)]. Similarly, synthetic cannabinoids also reduce intraocular pressure [Green, Symunds, Oliver and Elijah, Intraocular Pressure Following Systemic Administration of Cannabinoids., Curr. Eye Research 2, 247-253 (1982); Tiedeman, Shields, Weber, Crow, Coccetto, Harris and Howes, Opthalmology, 88, 270-277 (1981); Colasanti et al., supra]. Cannabinoid receptor binding sites can be defined as those to which radio-labelled 4-(1,1-dimethylheptyl)-2,3'-dihydroxy-6'alpha-(3-hydroxypropyl)-1', 2', 3', 4', 5', 6'-hexahydrobiphenyl (CP 55940) binds in a specific and saturable manner and the binding sites are heterogeneously distributed in the brain [Devane, Dysarz, Johnson, Melvin and Howlett, Determination and Characterization of a Cannabinoid Receptor in Rat Brain, Molecular Pharm. 34, 605-613 (1988)]. Natural and synthetic cannabinoids and certain of the compounds of the present invention, as more particularly described above, bind to CP 55940 binding sites. […] It is believed that agonist activity at the cannabinoid receptor mediates the anti-glaucoma actions of cannabinoids, and that agonist activity at this receptor correlates with ocular pressure lowering actions in man. Accordingly the cannabinoid receptor agonist activity of the compounds of the present invention indicate their usefulness in reducing ocular pressure.

[5] = Table 9, Examples, no route marked in the cell, read-out: ACH ED50
[6] = iv, Table 9, iv, read-out: ACH ED50 (iv)

COc1ccc(C(=O)c2c(C)n(C3CCCN(C)C3)c3ccccc23)cc1.Cl (racemic) [Example 4A, 1-(1-methyl-3-piperidinyl)-2-methyl-3-(4-methoxybenzoyl)-1H-indole hydrochloride]
NIP: percent inhibition of non-injected paw inflammation [1]: 50% | RPV: percent inhibition of injected paw [1]: 26% | ED50 [2, 5]: 33 mg/kg | RW percent inhibition at dose 17 ([3]; oral, dose level 17): 57% | IC50 ([4]; Mus musculus): 650 nM

COc1ccc(C(=O)c2c(C)n(C[C@@H]3CC[C@H](C)N3C)c3ccccc23)cc1 (relative stereo) [Example 1Z]
ED50 [2, 5]: 14 mg/kg | ED50 [2, 6]: 3 mg/kg | IC50 ([4]; Mus musculus): 48 nM

CN1CCN(C)C(Cn2cc(C(=O)c3cccc4ccccc34)c3ccccc32)C1 (stereo not shown) [3G (base)]
IC50 ([4]; Mus musculus): 15 nM

CN1CC[N+](C)(C)CC1Cn1cc(C(=O)c2cccc3ccccc23)c2ccccc21 (stereo not shown) [3G (quaternary)]
IC50 ([4]; Mus musculus): 156 nM

COc1ccc(C(=O)c2cn(C(C)C3CCCN3C)c3ccccc23)cc1 (stereo not shown) [Example 1AA]
ED50 [2, 5]: 23 mg/kg | ED50 [2, 6]: 5 mg/kg | ED50 [3]: 20 mg/kg | IC50 [4]: 127 nM

COc1ccc(C(=O)c2cn(C(C)C3CCCN3C)c3ccccc23)cc1 (stereo not shown) [Example 1AB]
ACH ED50 ([2]; Table 9, Examples, no route marked in the cell): 19 mg/kg | RW ED50 [3]: 10 mg/kg | IC50 [4]: 560 nM

CC(C1CCCN1C)n1cc(C(=O)c2ccccc2F)c2ccccc21 (stereo not shown) [Example 1AC]
inhibition in vivo at 100 mg/kg ([2]; Table 9): 40% | IC50 ([4]; Mus musculus): 111 nM

COc1ccc(C(=O)c2c(C)n(C(C)C3CCCN3C)c3ccccc23)cc1 (stereo not shown) [Example 1AF]
ED50 [2, 5]: 19 mg/kg | IC50 ([4]; Mus musculus): 542 nM

COc1ccc(C(=O)c2c(C)n(CC3CCC(C)(C)N3C)c3ccccc23)cc1 (stereo not shown) [Example 1AH]
IC50 ([4]; Mus musculus): 330 nM

Cc1c(C(=O)c2cccc3ccccc23)c2ccccc2n1CC1CN(C)CCO1 (stereo not shown) [Example 1G]
ED50 [2, 6]: 6 mg/kg | inhibition in vivo at 100 mg/kg ([2]; Table 9): 10% | IC50 ([4]; Mus musculus): 50 nM

COc1ccc(C(=O)c2cn(CC3CCCN(C)C3)c3ccccc23)cc1 (stereo not shown) [Example 1N]
ED50 [2, 5]: 91 mg/kg | RW ED50 [3]: 28.3 mg/kg | IC50 ([4]; Mus musculus): 94 nM

CN1CCCC(Cn2cc(C(=O)c3cccc4ccccc34)c3ccccc32)C1 (stereo not shown) [Example 1P]
NIP: percent inhibition of non-injected paw inflammation [1]: 38% | RPV: percent inhibition of injected paw [1]: 43% | ED50 [2, 5]: 144 mg/kg | IC50 ([4]; Mus musculus): 28 nM

CSc1ccc(C(=O)c2c(C)n(CC3CCCN3C)c3ccccc23)cc1 (stereo not shown) [Example 1V]
ED50 [2, 5]: 25 mg/kg | ED50 [3]: 7 mg/kg | IC50 ([4]; Mus musculus): 130 nM

Cc1c(C(=O)c2cccc3ccccc23)c2ccccc2n1C1CCCCN(C)C1 (stereo not shown) [Example 2AB]
inhibition in vivo at 100 mg/kg ([2]; Table 9): 30% | IC50 ([4]; Mus musculus): 13 nM

CN1CCCCC1Cn1cc(C(=O)c2ccccc2F)c2ccccc21 (stereo not shown) [Example 2AC]
ED50 [2, 5]: 10 mg/kg | ACH remark (Depr. = depressant) ([2]; Table 9): Depr. | IC50 ([4]; Mus musculus): 3 nM

CCc1ccc(C(=O)c2c(C)n(CC3CCCN3C)c3ccccc23)cc1 (stereo not shown) [Example 2AK]
ED50 [2, 5]: 40 mg/kg | ED50 [3]: 7 mg/kg | IC50 ([4]; Mus musculus): 25 nM

O=C(c1cccc2ccccc12)c1cn(CC2CCCCN2Cc2ccccc2)c2ccccc12 (stereo not shown) [Example 2AM]
IC50 ([4]; Mus musculus): 51 nM

O=C(c1cccc2ccccc12)c1cn(C2CCCCN(Cc3ccccc3)C2)c2ccccc12 (stereo not shown) [Example 2AO]
IC50 ([4]; Mus musculus): 480 nM

CN1CCCC1Cn1cc(C(=O)c2ccccc2F)c2ccccc21 (stereo not shown) [Example 2M]
ED50 [2, 5]: 53 mg/kg | IC50 ([4]; Mus musculus): 39 nM

Cc1c(C(=O)c2cccc3ccccc23)c2ccccc2n1CC1CCCN1C (stereo not shown) [Example 2Q]
inhibition in vivo at 100 mg/kg ([2]; Table 9): 20% | IC50 ([4]; Mus musculus): 2 nM

CN1CCCCC1CCn1cc(C(=O)c2cccc3ccccc23)c2ccccc21 (stereo not shown) [Example 2U]
inhibition in vivo at 100 mg/kg ([2]; Table 9): 30% | RW percent inhibition at dose 30 ([3]; oral, dose level 30): 50% | IC50 ([4]; Mus musculus): 107 nM

COc1ccc(C(=O)c2cn(CC3CCCN3C)c3ccccc23)cc1 (stereo not shown) [Example 2W]
ED50 [2, 5]: 11 mg/kg | ACH remark (Depr. = depressant) ([2]; Table 9): Depr. | ED50 [3]: 3 mg/kg | IC50 ([4]; Mus musculus): 8 nM

CN1CCCCC(n2cc(C(=O)c3cccc4ccccc34)c3ccccc32)C1 (stereo not shown) [Example 2Z]
NIP: percent inhibition of non-injected paw inflammation [1]: 65% | ACH percent inhibition at dose 30 (iv) ([2]; Table 9, dose level 30, iv): 80% | IC50 ([4]; Mus musculus): 82 nM

O=C(c1cccc2ccccc12)c1cn(CC2COCCN2Cc2ccccc2)c2ccccc12 (stereo not shown) [Example 3F]
ED50 [2, 6]: 2.2 mg/kg | IC50 ([4]; Mus musculus): 224 nM

O=C(c1cccc2ccccc12)c1cn(CC2CCCCN2)c2ccccc12 (stereo not shown) [Example 4I]
ACH percent inhibition at dose 30 ([2]; Table 9, dose level 30): 30% | IC50 ([4]; Mus musculus): 0.3 nM

Cc1c(C(=O)c2ccccc2F)c2ccccc2n1CC1CCC(C)N1 (stereo not shown) [Example 8E]
IC50 ([4]; Mus musculus): 160 nM

O=C(c1cccc(F)c1)c1cn(CC2CCCN2)c2ccccc12 (stereo not shown) [Example 8F]
IC50 ([4]; Mus musculus): 325 nM

O=C(c1cccc2ccccc12)c1cn(CC2COCCN2)c2ccccc12 (stereo not shown) [Example 8G]
ACH percent inhibition at dose 30 ([2]; Table 9, dose level 30): 100% | IC50 ([4]; Mus musculus): 4.7 nM

COc1ccc(C(=O)c2c(C)n(C3CN(C)C3)c3ccccc23)cc1.O=C(O)/C=C\C(=O)O [Example 10A, 2-methyl-3-(4-methoxybenzoyl)-1-(1-methyl-3-azetidinyl)-1H-indole maleate]
ED50 [2, 5]: 40 mg/kg | IC50 ([4]; Mus musculus): 495 nM

CN1CCOCC1Cn1cc(C(=O)c2cccc3ccccc23)c2ccccc21.Cl (stereo not shown) [Example 10C, 3-(1-naphthylcarbonyl)-1-[(4-methyl-3-morpholinyl)methyl]-1H-indole hydrochloride]
ACH percent inhibition at dose 30 ([2]; Table 9, dose level 30): 50% | IC50 ([4]; Mus musculus): 0.4 nM

Cc1c(C(=O)c2ccc(O)cc2)c2ccccc2n1CC1CCCN1C (stereo not shown) [Example 11A, 2-methyl-3-(4-hydroxybenzoyl)-1-[(1-methyl-2-pyrrolidinyl)methyl]-1H-indole hydrochloride]
IC50 ([4]; Mus musculus): 284 nM

Cc1c(C(=O)c2ccc(O)cc2)c2ccccc2n1CC1CCC(C)N1C (stereo not shown) [Example 11B, 2-methyl-3-(4-hydroxybenzoyl)-1-[(1,5-dimethyl-2-pyrrolidinyl)methyl]-1H-indole hydrochloride]
IC50 ([4]; Mus musculus): 217 nM

Source: patent US5817651A, “3-arylcarbonyl-1-(C-attached-N-heteryl)-1H-indoles” (Sanofi, priority 1997, dated 1998)
